We go through 87 molecules from a melting point compilation (Tetko et al.; mined from patent text by program, amines drawn as free bases though some values may be those of a salt).

As for `Cn1cc(Oc2cccc(C(F)(F)F)c2)c(=O)c(-c2cccc(C(F)(F)F)c2)c1`, the melting point was in the range of 93 to 95 °C.

For the molecule `CC(C)c1cccc(Cl)c1Oc1nnc(Cl)cc1Cl`, the melting point fell in the range of 90 to 91 °C.

Molecule `COc1ccc(OC)c(-c2nc3ncccc3[nH]2)c1` showed a melting point of 235 °C.

As to `Cc1ccc(SC(C#N)c2ccc(C(=O)c3cccs3)cc2)cc1` (configuration not stated), the melting point was 124 to 126 °C.

The molecule `O=C(O)C(=O)c1ccc(OCCOc2ccc3ccccc3c2)cc1Cl` displayed a melting point of 152 to 153 °C.

Regarding `CC1(CN(c2ccc(Cl)cc2)S(C)(=O)=O)OCCO1`, the melting point was in the range of 84 to 85 °C.

Regarding `CNc1nc2ccccc2c2[nH]c3ccccc3c12`, the melting point lay in the range of 146 to 147 °C.

For `c1cncc(OCCCn2cc(-c3cc4nccnc4[nH]3)c3ccccc32)c1`, the melting point lay in the range of 208 to 209 °C.

Regarding `O=C(NCc1ccncc1)c1ccnc(N2CCN(CC3CC3)C2=O)c1`, the melting point lay in the range of 160 to 162 °C.

For `O=C(NCc1ccc(Cl)cc1)c1cnc2c(F)cc(C#CCO)cc2c1O`, the melting point is 277 to 279 °C.

`CCCCCCCCCCCCCCCCOC(=O)c1cnccn1`: the melting point lay within 53 to 54 °C.

Take `COc1cc(C(=O)c2c(C)c(C(=O)OCc3ccccc3)c3cc(NC(=O)OC(C)(C)C)ccn23)ccc1[N+](=O)[O-]`: the melting point is 95 °C.

As to `CS(=O)Cc1cc(C(F)(F)F)ccc1N` (configuration not stated), the melting point lay in the range of 122 to 125 °C.

Consider `CN(SC1CCCCCCC1Cl)C(=O)Nc1ccc(Cl)c(Cl)c1` (configuration not stated), for which the melting point lay within 90 to 91 °C.

As for `Nc1cc2cccnc2c(Cc2ccccc2)n1`, the melting point is 113 to 116 °C.

`c1ccc(C2=NC(c3ccccn3)(c3ccccn3)N=C2c2ccccc2)cc1` displayed a melting point of 214 to 216 °C.

On to `CCOC(=O)c1cc2c(nc1C)C(=Cc1cccs1)CCC2`, for which the melting point is 117 to 118 °C.

Turning to `O=c1oc(-c2ccc(-c3nc4ccccc4c(=O)o3)cc2)nc2ccccc12`, the melting point is greater than 300 °C.

`CC(=O)OC1CSC(Oc2cccc(-c3cccnc3C)c2)C(OC(C)=O)C1OC(C)=O` (configuration not stated): the melting point was determined as 153 °C.

Molecule `Cn1cc(C(=O)CN2CCN(c3ncccn3)CC2)cc1C(=O)c1ccc([N+](=O)[O-])cc1` gave a melting point of 164 to 166 °C.

`NS(=O)(=O)c1ccccc1C1=NOCCO1` came in with a melting point of 131 to 133 °C.

On to `Cc1cc(C)cc(NC(=O)Cc2ccc(OC(C)C(=O)O)cc2)c1` (configuration not stated), for which the melting point lay in the range of 183 to 187 °C.

As for `CCCCCCCCCCCCNC(=O)c1cc(-c2ccc(OC)cc2)c(OCCO)c(-c2cccc(Cl)c2)c1`, the melting point was 114 to 117 °C.

With `CCCc1ccc(Oc2ccc3c(c2)C=C(C(=O)O)CCS3(=O)=O)cc1`, the melting point is 147 to 149 °C.

Molecule `O=C1c2cc(O)ccc2NCC1Cc1ccccc1` (configuration not stated) showed a melting point of 143 to 149 °C.

`CCc1nn(-c2cc(NC(C)=O)ccc2Cl)c(=O)n1Cc1ccc(-c2ccccc2S(=O)(=O)NC(=O)OC(C)(C)C)cc1F` gave a melting point of 158 to 160 °C.

In the case of `O=C(Oc1ccc2c(OC(=O)c3ccc(O)c(O)c3)c3cc(OC(=O)c4ccc(O)c(O)c4)ccc3cc2c1)c1ccc(O)c(O)c1`, the melting point came to 233 °C.

In turn, `CC(=O)NC(C)c1ccc(CN2CCN(c3ccccn3)CC2)cc1` (configuration not stated) gave a melting point of 120 to 121 °C.

Molecule `COc1cccc(CC(=O)O)c1OCc1cc(OC(C)C)nn1Cc1ccc2ccccc2n1` showed a melting point of 129 to 130 °C.

In the case of `CC(=O)OC1(C(C)=O)CCC2C3C=CC4=CC(=O)CCC4(C)C3C(F)CC21C` (configuration not stated), the melting point lay within 220 to 222 °C.

With `COc1cc2c(cc1Nc1ncc(Cl)c(Nc3ccccc3S(=O)(=O)N3CCC(O)C3)n1)CCN(CC(C)O)CC2` (configuration not stated), the melting point is 197 to 199 °C.

For `O=C(O)Cc1ccc(Oc2ccc(F)cc2)cc1`, the melting point fell in the range of 87 to 89 °C.

`CCCCOc1ccc(S(C)(=O)=O)cc1-c1nc2c(CC)n(C3CN(C(C)C)C3)nc2c(=O)[nH]1` showed a melting point of 209 to 213 °C.

With `O=C(Cn1cnc2ccccc21)Nc1ccc(-n2nc(C(F)(F)F)cc2C2CC2)cc1`, the melting point is 178 to 184 °C.

For `Cc1cc(Cl)c(Nc2ccc(C)cc2CC(=O)O)c(Cl)c1`, the melting point was 179 to 182 °C.

Regarding `O=C(Nc1cccc(S(=O)(=O)NCCO)c1)c1cnn2c(C(F)F)cc(-c3ccc(C(F)(F)F)cc3)nc12`, the melting point turned out to be 231 °C.

Take `c1ccc(Oc2ncc(-c3cnc(-c4ccccc4)[nH]3)cn2)cc1`: the melting point turned out to be 254 °C.

On to `COc1ccc(C(=O)Nc2ccccc2)cc1Oc1ccccc1`, for which the melting point was in the range of 200 to 201 °C.

Turning to `CCC(=O)N1CCC(=O)c2cc(Cl)c(Cl)cc21`, the melting point fell in the range of 135 to 137 °C.

Molecule `CCS(=O)(=O)CCC(=O)NNC(=O)N1Cc2ccccc2Oc2ccc(F)cc21` showed a melting point of 191 to 193 °C.

For the molecule `Cn1c([N+](=O)[O-])cnc1COc1ccc([N+](=O)[O-])cc1Cl`, the melting point came to 138 °C.

The molecule `CN(C)CCCOc1c(Cl)cc(-c2nnc(CSCCOc3ccccc3)o2)cc1Cl` showed a melting point of 95 to 99 °C.

Take `c1cc(N2CCNCC2)cnn1`: the melting point is greater than 300 °C.

Turning to `Cc1[nH]c2ccc(CCN(C)C3CCCCC3)cc2c1C(=O)OCc1ccccc1`, the melting point fell in the range of 122 to 124 °C.

As to `O=C1CCCN1c1ccc(F)cc1F`, the melting point fell in the range of 95 to 97 °C.

For the molecule `CCOC(=O)c1c[nH]n(Cc2ccccc2)c1=O`, the melting point fell in the range of 79 to 81 °C.

`CC(=O)OC1=CC2=CCC3C(C(F)CC4(C)C(=O)CCC34)C2CC1` (configuration not stated) returned a melting point of 175 to 177 °C.

Regarding `CN(O)C(=O)c1ccc(OCCOc2ccccc2)cc1`, the melting point is 134 to 136 °C.

For `CCN(CC)C(=S)c1c(C)cccc1[Si](C)(C)C`, the melting point lay in the range of 82 to 83 °C.

For `OC1(C#Cc2cc(Cl)ccc2Cl)CN2CCC1CC2` (configuration not stated), the melting point was in the range of 197 to 200 °C.

`NC(=O)c1ccc2nc3ccsc3c(=O)n2c1`: the melting point fell in the range of 319 to 320 °C.

In turn, `COc1cc2nc(N3CCN(c4nc5c([nH]4)CCCCC5)CC3)nc(N)c2cc1OC` gave a melting point greater than 250 °C.

`COCCNC(=O)Nc1c(C)c(C)c2c(c1C)C(c1ccc(C(C)C)cc1)CO2` (configuration not stated) had a melting point of 172 to 173 °C.

`CCOC(=O)c1cnc2c(NC(=O)c3c(Cl)cccc3Cl)cccc2c1CC(=O)O` returned a melting point of 149 to 159 °C.

`CC(C)OCCNS(=O)(=O)NC(=O)OCc1ccccc1` displayed a melting point of 88 to 89 °C.

In the case of `Oc1cc(Cl)c(-n2cnnn2)cc1Oc1ccc(Cl)cc1Cl`, the melting point fell in the range of 147 to 148 °C.

As to `COC(=O)CCCc1cc2cc(Cl)ccc2n1S(=O)(=O)c1ccc2nc(C)oc2c1`, the melting point was in the range of 100 to 110 °C.

In turn, `Nc1nc(Nc2ccccc2)sc1C(=O)c1c(F)cccc1F` yielded a melting point of 183 to 184 °C.

`CN(C)CCc1c[nH]c2ccc(C#CCOCc3ccccc3)cc12` gave a melting point of 93 to 95 °C.

As to `CC(Oc1cccc2ccoc12)C(N)=NO` (configuration not stated), the melting point was in the range of 92 to 94 °C.

`CCCCCCC(C(=O)O)N1Cc2cc(-c3ccccc3-c3nn[nH]n3)ccc2N1` (configuration not stated): the melting point was in the range of 113 to 120 °C.

`CNC(=O)N/N=C1/C(=O)N(CCN(C(C)C)C(C)C)c2ccc(C)cc21` returned a melting point of 158 °C.

Consider `CCOC(=O)N1c2ccc(C(F)(F)F)cc2[C@@H](NC(=O)OC)C[C@H]1CC`, for which the melting point lay in the range of 157 to 158 °C.

Turning to `CCOC(=O)c1c(Cn2cnnc2)nc2cc(OC)c(OC)cc2c1-c1ccc(OC(C)C)c(OC)c1`, the melting point is 178 to 179 °C.

`COc1ccc2c(C(=O)O)ccc(OC)c2c1` returned a melting point of 227 to 229 °C.

For the molecule `O=C(O)CC1CCC2CC(=O)NC12` (configuration not stated), the melting point was in the range of 186 to 189 °C.

For `Cn1nc(C(=O)NCC2(O)CN3CCC2CC3)c2ccccc21` (configuration not stated), the melting point was 147 to 149 °C.

Molecule `Cc1cc(-c2cnn3c(C(F)(F)F)cc(-c4ccc(Cl)c(C)c4)nc23)ccn1` showed a melting point of 240 °C.

`COC(=O)c1nc(-c2ccc(Cl)c(OC)c2F)nc(N)c1C(F)CBr` (configuration not stated) registered a melting point of 144 to 146 °C.

`O=c1[nH]c2ccc(Br)cc2c(=O)n1CCCS`: the melting point was in the range of 220 to 221 °C.

`C=CCOc1ccccc1C=C(C=O)C(C=O)=Cc1ccccc1OCC=C` displayed a melting point of 117 to 118 °C.

Regarding `CN(C)c1ccc(C#N)nn1`, the melting point is 150 °C.

For the molecule `CSc1ccc2c(C3=C(c4cn(C)c5cc([N+](=O)[O-])ccc45)C(=O)NC3=O)cn(C)c2c1`, the melting point fell in the range of 273 to 275 °C.

Take `OC12CC3CC(C1)CC(O)(C3)C2`: the melting point amounted to 169 °C.

With `CC(=O)c1ccc(-c2ccc(Cl)cc2)cc1`, the melting point was 100 to 101 °C.

`CN(C)c1cccc2c1c(=O)n(C)c1c(-c3nc(C4CC4)no3)ncn21`: the melting point is 214 °C.

`CC1(C)OC(=O)Nc2c(Br)cc(-c3ccc(F)c(Cl)c3)cc21` gave a melting point of 194 to 195 °C.

`Cc1cc(-c2cc(C(F)F)nn2-c2ccc(S(C)(=O)=O)c(F)c2)ccc1-c1nccs1` had a melting point of 123 °C.

As to `O=C(Nc1ccc(-n2nc(C(F)(F)F)cc2C2CC2)cc1)c1c(Cl)cncc1Cl`, the melting point is 182 to 184 °C.

Molecule `CS(=O)c1ccc(C2=C(c3cc(F)cc(F)c3)C(=O)C(C)(C)O2)cc1` (configuration not stated) registered a melting point of 133 to 134 °C.

Molecule `O=C1NCCCCC1NC(c1ccccc1)(c1ccccc1)c1ccccc1` (configuration not stated) had a melting point of 189 °C.

For the molecule `CC(C)n1c(C=O)c(-c2ccc(F)cc2)c(-c2ccc(F)cc2)c1C(=O)OCc1ccccc1`, the melting point lay in the range of 94 to 95 °C.

The molecule `O=C(O)c1cc([N+](=O)[O-])cn1C1CCCC1` came in with a melting point of 195 to 198 °C.

With `Cc1ccc(S(=O)(=O)NC2CCCCNC2=O)cc1` (configuration not stated), the melting point came to 180 °C.

Regarding `CC(C1=NC(C)(C)CO1)c1ccc(-c2ccc(F)cc2F)c(O)c1` (configuration not stated), the melting point is 188 to 194 °C.

As for `COc1ccn2nc(-c3ccccc3)c(-c3ccc(=O)n(C4CCOC4)n3)c2c1` (configuration not stated), the melting point was in the range of 207 to 208 °C.

`Cn1cc([C@H]2CC[C@@H](N3CCN(c4cc(Br)cc5cccnc45)CC3)CC2)c2cc(F)ccc21` returned a melting point of 215 to 217 °C.

One may read the melting point as the temperature of the solid-liquid transition.
